Test results reported in ChEMBL document CHEMBL1201862, “PubChem BioAssay data set” (2004).
Calls of active or inactive are those of the source.

Columns and labels:
[1] = tested on: Streptococcus sp. 'group A'; assay: growth inhibition of control SK(-) GAS strain, dose response, counter-screen for streptokinase expression inhibitor project, luminescence, kanamycin, BacTiterGlo, confirmation (AID 1900); assay type: functional, organism-based
Streptokinase A = biological target: T1, Streptokinase A (Streptococcus pyogenes serotype M1, UniProt P10520); assay: S. pyogenes streptokinase expression inhibitors, potency, dose response, plasminogen activation absorbance, OD405 (AID 1914); assay type: functional, Streptococcus pyogenes M1 GAS;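 also: secreted streptokinase activity via plasminogen activation per viability signal from cell pellet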
T1 sequence (P10520 whole entry): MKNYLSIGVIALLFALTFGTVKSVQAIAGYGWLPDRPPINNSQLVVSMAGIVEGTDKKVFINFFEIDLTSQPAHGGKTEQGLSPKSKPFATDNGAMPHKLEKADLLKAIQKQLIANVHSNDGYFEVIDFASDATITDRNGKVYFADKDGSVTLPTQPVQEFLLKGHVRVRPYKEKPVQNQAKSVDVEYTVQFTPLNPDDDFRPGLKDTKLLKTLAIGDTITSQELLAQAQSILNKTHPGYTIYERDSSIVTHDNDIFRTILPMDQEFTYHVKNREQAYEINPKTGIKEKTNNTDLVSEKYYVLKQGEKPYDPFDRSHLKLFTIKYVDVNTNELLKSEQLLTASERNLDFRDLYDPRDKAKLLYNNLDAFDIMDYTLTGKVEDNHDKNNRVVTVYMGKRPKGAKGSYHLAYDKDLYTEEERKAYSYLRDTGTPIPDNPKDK

Streptococcus = assay: Group A Streptococcus viability loss, dose response, counter-screen for streptokinase expression inhibitor project, luminescence, BacTiterGlo (AID 1915); assay type: functional, organism-based;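 also: potency for reduction of bacterial viability or growth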
Cytochrome P450 3A4 = Cytochrome P450 3A4 (Homo sapiens, UniProt P08684);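 also: CYP3A4 tested as one member of a cytochrome P450 panel screen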
Cytochrome P450 2C9 = Cytochrome P450 2C9 (Homo sapiens, UniProt P11712)
[2] = biological target: T2, Heat shock factor protein 1 (Mus musculus, UniProt P38532); assay: HSF1 potentiators in luciferase reporter cells, confirmation, cell-based, NIH3T3, luminescence, dose retest (AID 435004); assay type: functional;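 also: stress induced by proteasome inhibitor MG132 added 30 min after compound; luciferase reporter driven by HSF1 response element in NIH3T3 cells; actives raise luminescence as potentiators of the MG132 stress response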
T2 sequence (P38532 whole entry): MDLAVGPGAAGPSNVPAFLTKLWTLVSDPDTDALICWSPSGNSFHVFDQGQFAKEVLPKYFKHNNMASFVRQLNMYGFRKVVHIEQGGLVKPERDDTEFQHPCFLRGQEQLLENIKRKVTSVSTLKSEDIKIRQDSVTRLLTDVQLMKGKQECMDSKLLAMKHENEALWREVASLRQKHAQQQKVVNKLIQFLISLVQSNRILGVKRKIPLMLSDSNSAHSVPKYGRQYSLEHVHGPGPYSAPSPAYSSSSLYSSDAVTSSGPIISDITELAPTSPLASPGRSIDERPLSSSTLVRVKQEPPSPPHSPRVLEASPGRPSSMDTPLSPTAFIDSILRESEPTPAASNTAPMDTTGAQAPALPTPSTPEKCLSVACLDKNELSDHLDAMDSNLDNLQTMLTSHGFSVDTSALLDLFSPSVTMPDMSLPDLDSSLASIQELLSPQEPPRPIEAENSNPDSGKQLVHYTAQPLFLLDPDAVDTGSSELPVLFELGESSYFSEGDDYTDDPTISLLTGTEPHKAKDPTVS

Cytochrome P450 2C19 = Cytochrome P450 2C19 (Homo sapiens, UniProt P33261); assay: Cytochrome panel assay with activity outcomes. Panel member name: p450-cyp2c19 Compounds with AC50 equal or less than 10 uM are considered active; assay type: functional; details: read-out: AC50
Cytochrome P450 1A2 = biological target: T3, Cytochrome P450 1A2 (Homo sapiens, UniProt P05177);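 also: PubChem cytochrome P450 panel assay, CYP1A2 panel member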
T3 sequence (P05177 whole entry): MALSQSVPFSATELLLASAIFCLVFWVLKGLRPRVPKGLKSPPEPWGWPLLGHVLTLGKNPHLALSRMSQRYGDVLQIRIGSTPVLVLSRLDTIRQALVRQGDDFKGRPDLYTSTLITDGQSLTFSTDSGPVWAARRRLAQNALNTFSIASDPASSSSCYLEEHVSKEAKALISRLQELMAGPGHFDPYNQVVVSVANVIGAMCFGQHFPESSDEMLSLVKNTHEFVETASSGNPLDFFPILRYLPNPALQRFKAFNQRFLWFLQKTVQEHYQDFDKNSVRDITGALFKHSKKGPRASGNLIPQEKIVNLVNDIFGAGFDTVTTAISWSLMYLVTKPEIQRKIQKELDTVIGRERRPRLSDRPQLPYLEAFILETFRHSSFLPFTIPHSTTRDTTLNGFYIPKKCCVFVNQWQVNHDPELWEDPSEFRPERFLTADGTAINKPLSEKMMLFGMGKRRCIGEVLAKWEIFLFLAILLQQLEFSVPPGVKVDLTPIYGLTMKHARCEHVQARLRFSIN

[3] = biological target: T4, RNA-binding protein pos-1 (Caenorhabditis elegans, UniProt G5EF15); assay: inhibitors of POS-1/mex-3 RNA binding, dose response, biochemical, fluorescence polarization (AID 1964);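 also: purified POS-1 fused to maltose binding protein made in E. coli; potency of compounds blocking POS-1 binding to fluorescent RNA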
T4 sequence (G5EF15 whole entry): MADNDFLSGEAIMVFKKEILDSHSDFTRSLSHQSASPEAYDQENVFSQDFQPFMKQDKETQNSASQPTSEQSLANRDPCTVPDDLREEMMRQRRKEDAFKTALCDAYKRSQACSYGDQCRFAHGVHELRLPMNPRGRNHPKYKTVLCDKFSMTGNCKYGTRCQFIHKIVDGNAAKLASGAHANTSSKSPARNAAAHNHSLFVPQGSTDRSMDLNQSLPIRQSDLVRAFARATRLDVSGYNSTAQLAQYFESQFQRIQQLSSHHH

[4] = biological target: T5, Zinc finger protein mex-5 (Caenorhabditis elegans, UniProt Q9XUB2); assay: MEX-5/TCR-2 RNA interaction inhibitors, dose response, biochemical, C. elegans, fluorescence polarization (AID 1960)
T5 sequence (Q9XUB2 whole entry): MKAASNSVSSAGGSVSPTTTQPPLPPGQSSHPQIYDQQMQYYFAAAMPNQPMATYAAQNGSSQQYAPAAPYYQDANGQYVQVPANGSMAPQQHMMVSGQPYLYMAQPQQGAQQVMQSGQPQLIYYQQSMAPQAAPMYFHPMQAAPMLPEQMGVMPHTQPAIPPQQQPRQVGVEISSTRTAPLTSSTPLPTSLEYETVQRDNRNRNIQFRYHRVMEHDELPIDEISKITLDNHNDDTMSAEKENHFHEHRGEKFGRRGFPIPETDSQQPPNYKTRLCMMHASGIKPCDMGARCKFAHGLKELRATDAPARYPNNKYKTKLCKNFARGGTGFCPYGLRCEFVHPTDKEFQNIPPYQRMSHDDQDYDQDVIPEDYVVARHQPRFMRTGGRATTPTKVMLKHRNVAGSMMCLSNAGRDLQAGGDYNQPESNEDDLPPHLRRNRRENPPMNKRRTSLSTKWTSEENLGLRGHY

Cytochrome P450 3A4, sequence (P08684 whole entry): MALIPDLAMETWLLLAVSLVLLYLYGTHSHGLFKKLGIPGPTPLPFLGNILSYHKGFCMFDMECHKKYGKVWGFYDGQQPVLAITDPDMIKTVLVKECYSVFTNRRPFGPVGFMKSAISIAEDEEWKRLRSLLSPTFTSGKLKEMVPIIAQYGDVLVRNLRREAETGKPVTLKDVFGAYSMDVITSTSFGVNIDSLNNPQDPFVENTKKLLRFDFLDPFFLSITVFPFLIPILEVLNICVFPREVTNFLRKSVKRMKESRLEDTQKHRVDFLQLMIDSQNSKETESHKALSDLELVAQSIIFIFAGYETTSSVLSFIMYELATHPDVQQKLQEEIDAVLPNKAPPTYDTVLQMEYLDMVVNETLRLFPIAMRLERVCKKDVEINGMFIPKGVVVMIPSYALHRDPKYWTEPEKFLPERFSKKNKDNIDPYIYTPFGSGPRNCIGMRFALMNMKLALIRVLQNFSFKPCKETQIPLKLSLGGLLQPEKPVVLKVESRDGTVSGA
Cytochrome P450 2C19, sequence (P33261 whole entry): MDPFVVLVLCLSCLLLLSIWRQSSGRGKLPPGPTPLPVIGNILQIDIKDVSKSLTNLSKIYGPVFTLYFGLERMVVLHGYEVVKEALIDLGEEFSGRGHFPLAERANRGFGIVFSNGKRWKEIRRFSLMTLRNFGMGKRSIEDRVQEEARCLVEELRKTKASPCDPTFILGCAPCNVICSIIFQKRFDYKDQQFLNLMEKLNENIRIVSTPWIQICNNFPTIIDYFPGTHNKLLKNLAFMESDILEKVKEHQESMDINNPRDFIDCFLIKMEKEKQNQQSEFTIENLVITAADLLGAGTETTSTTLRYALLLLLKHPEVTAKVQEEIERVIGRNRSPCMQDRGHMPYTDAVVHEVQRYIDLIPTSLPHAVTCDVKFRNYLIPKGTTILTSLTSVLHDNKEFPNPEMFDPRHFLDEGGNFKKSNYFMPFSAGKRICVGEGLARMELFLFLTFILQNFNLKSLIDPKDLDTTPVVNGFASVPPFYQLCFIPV
Cytochrome P450 2C9, sequence (P11712 whole entry): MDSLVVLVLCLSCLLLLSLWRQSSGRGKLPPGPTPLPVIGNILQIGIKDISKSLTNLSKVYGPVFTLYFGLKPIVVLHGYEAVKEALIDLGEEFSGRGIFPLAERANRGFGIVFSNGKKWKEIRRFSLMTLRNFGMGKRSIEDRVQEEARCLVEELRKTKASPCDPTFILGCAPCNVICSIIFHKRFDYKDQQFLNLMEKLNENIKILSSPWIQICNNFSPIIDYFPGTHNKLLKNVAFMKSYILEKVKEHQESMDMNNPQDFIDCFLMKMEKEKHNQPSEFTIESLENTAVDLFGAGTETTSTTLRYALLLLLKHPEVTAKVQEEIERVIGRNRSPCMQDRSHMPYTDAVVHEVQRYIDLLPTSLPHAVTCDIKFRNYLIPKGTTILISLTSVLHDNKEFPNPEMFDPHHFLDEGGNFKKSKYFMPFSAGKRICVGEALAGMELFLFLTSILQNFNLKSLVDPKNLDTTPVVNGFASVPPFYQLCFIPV

With `COc1cccc(-c2cc(C(F)(F)F)nc(N3CCCCC3)n2)c1` the EC50 [1] was 5.13 µM (active), the EC50 (Streptokinase A) was 4.92 µM (active) and the EC50 (Streptococcus) was 19 µM (active). For the same compound, the AC50 (Cytochrome P450 3A4) was 20 µM (inconclusive) and the AC50 (Cytochrome P450 2C9) was 0.355 µM (inconclusive).

In the case of `Oc1ccc([C@@H]2CNCc3sccc32)cc1O`, the AC50 (Cytochrome P450 3A4) is reported as 15.8 µM (inconclusive).

For `c1ccc(Nc2c(-c3ccco3)nc3ccccn23)cc1`, the EC50 [2] was 151 µM (active).

With `COc1ccc2c(c1)c(C(=O)CN1CCCCC1)c(C)n2C` the EC50 [2] was > 260 µM (inactive).

With `Cc1nc2ncnn2c(C)c1CCC(=O)NCc1ccccc1` the AC50 (Cytochrome P450 3A4) was 17.8 µM (inconclusive).

In the case of `COc1ccc(S(=O)(=O)Nc2ccccc2C(F)(F)F)cc1`, the EC50 [2] is reported as > 260 µM (inactive).

With `CCOC(=O)C1CCN(C(=O)c2ccc3c(Cl)c4c(nc3c2)CCCC4)CC1` the EC50 [2] was 15.8 µM (active).

In the case of `COC(=O)c1cc2c(ccn2-c2ccc(F)cc2)n1Cc1ccc(C#N)cc1`, the EC50 [2] is reported as > 260 µM (inactive).

For `COc1ccc(N2CCN(Cc3nc4c(c(=O)n(C)c(=O)n4C)n3CC(C)=O)CC2)cc1`, the AC50 (Cytochrome P450 2C9) was 28.2 µM (inconclusive).

For `O=C(O)CN1C(=O)/C(=C/c2ccccc2Br)Oc2ccccc21`, the EC50 [2] was > 260 µM (inactive).

In the case of `C[C@H]1COC(=O)[C@H](Cc2ccccc2)NC(=O)[C@@H](C)COC(=O)[C@H](Cc2ccccc2)NC1=O`, the AC50 (Cytochrome P450 3A4) is reported as 3.98 µM (inconclusive).

`NC(=O)CI` [IODOACETAMIDE] was tested, and the AC50 (Cytochrome P450 2C19) was 39.8 µM (inconclusive), the AC50 (Cytochrome P450 1A2) was 31.6 µM (inconclusive) and the AC50 (Cytochrome P450 2C9) was 39.8 µM (inconclusive).

With `COc1ccc(C2Nc3ccccc3C(=O)N2Cc2ccco2)cc1COc1ccc(F)cc1` (configuration not stated) the EC50 [2] was > 260 µM (inactive).

With `CC1(C)Oc2cc(N)c([N+](=O)[O-])cc2O1` the AC50 (Cytochrome P450 2C9) was 35.5 µM (inconclusive).

For `O=c1c(-c2ccc(F)c(F)c2)nc2cncnc2n1C1CC1`, the AC50 (Cytochrome P450 3A4) was 12.6 µM (inconclusive).

With `Cc1ccccc1N(C(=O)Cc1cccs1)C(C(=O)NCC1CCCO1)c1cccnc1` (configuration not stated) the AC50 (Cytochrome P450 2C19) was 28.2 µM (inconclusive), the AC50 (Cytochrome P450 3A4) was 1 µM (inconclusive) and the AC50 (Cytochrome P450 2C9) was 22.4 µM (inconclusive).

With `CN(C)c1ccc(CNC(=O)c2ccc(CNc3c(N4CCCCC4)c(=O)c3=O)cc2)cc1` the EC50 [2] was > 260 µM (inactive).

For `CN1CC[C@@]2(CCCN(C(=O)c3ccncc3)C2)C1`, the AC50 (Cytochrome P450 3A4) was 31.6 µM (inconclusive).

`O=C(O)c1cc2cc(Cc3cccnc3)ccc2o1` was tested, and the AC50 (Cytochrome P450 3A4) was 25.1 µM (inconclusive).

In the case of `Cc1cc(C)c(S(=O)(=O)N2CCCC(C(=O)NCCC3=CCCCC3)C2)c(C)c1` (configuration not stated), the EC50 [2] is reported as > 260 µM (inactive).

For `CCCCN1C(=O)NC(=O)/C(=C\NCCN2CCCCC2)C1=O`, the AC50 (Cytochrome P450 3A4) was 20 µM (inconclusive).

With `O=C(NNC(=O)c1ccccc1[N+](=O)[O-])c1csc(N2CCOCC2)n1` the EC50 [3] was 84.9 µM (active) and the EC50 [4] was 0.731 µM (active).

`O=C(c1[nH]o[n+](=O)c1C(=O)c1csc2ccccc12)c1csc2ccccc12` was tested, and the AC50 (Cytochrome P450 3A4) was 3.16 µM (inconclusive).

`Cc1ccc(C(c2nnnn2CC2CCCO2)N2CCN(C(=O)c3ccco3)CC2)cc1` (configuration not stated) was tested, and the AC50 (Cytochrome P450 2C9) was 25.1 µM (inconclusive).

In the case of `C[C@H]1O[C@@H](CC(=O)O)Cc2c(O)c3c(c(O)c21)C(=O)C=C(C1=CC(=O)c2c(O)c4c(c(O)c2C1=O)C[C@H](CC(=O)O)O[C@@H]4C)C3=O`, the AC50 (Cytochrome P450 2C9) is reported as 7.94 µM (inconclusive).

With `COc1ccc(NS(=O)(=O)c2ccc(NC(=O)c3cnn4c(C(F)F)cc(-c5ccc(C)cc5)nc34)cc2)cc1` the AC50 (Cytochrome P450 2C19) was 2.24 µM (inconclusive), the AC50 (Cytochrome P450 1A2) was 0.891 µM (inconclusive) and the AC50 (Cytochrome P450 2C9) was 3.55 µM (inconclusive).

For `COc1ccc(Nc2nnc(-c3ccc(N4CCOCC4)c([N+](=O)[O-])c3)c3ccccc23)cc1`, the AC50 (Cytochrome P450 2C19) was 15.8 µM (inconclusive) and the AC50 (Cytochrome P450 3A4) was 7.94 µM (inconclusive).

With `Cc1c(Nc2cc(N3CCCC(C)C3)c3nonc3c2[N+](=O)[O-])c(=O)n(-c2ccccc2)n1C` (configuration not stated) the AC50 (Cytochrome P450 2C9) was 2.51 µM (inconclusive).

`CC(C)N1CCc2c(sc(NC(=O)c3ccc(S(=O)(=O)N(C)CC4CCCO4)cc3)c2C(N)=O)C1` (configuration not stated) was tested, and the EC50 [3] was 203 µM (active), the EC50 [1] was > 150 µM (not active) and the EC50 [4] was > 300 µM (not active). For the same compound, the EC50 (Streptokinase A) was > 150 µM (not active) and the EC50 (Streptococcus) was > 150 µM (not active).

In the case of `O=C(c1cc(C(F)(F)F)cc(C(F)(F)F)c1)N1CCC2(CC1)CN(Cc1ccncc1)C2`, the AC50 (Cytochrome P450 1A2) is reported as 20 µM (inconclusive) and the AC50 (Cytochrome P450 3A4) is reported as 15.8 µM (inconclusive).

In the case of `O=C(Nc1cccn2ncnc12)C(F)(F)F`, the EC50 [2] is reported as > 260 µM (inactive).

`Cc1cc(/C=N/n2cnnc2)c(C)n1-c1cccc(C(=O)O)c1` was tested, and the EC50 [3] was > 300 µM (not active) and the EC50 [4] was > 300 µM (not active).

`N#CCc1c(C#N)c(N)nc(N2CCN(S(=O)(=O)c3ccccc3F)CC2)c1C#N` was tested, and the EC50 [2] was > 260 µM (inactive).

With `COCCn1c(=O)c(-c2cc(F)cc(F)c2)nc2cnc(OC)nc21` the AC50 (Cytochrome P450 2C19) was 39.8 µM (inconclusive) and the AC50 (Cytochrome P450 2C9) was 39.8 µM (inconclusive).

For `COC(=O)C1=C(C)N(c2ccc(Cl)cc2)/C(=C/c2cccs2)C1=O`, the EC50 [3] was > 300 µM (not active) and the EC50 [4] was > 300 µM (not active).

In the case of `Cc1nn(-c2ccccc2)c2sc(C(=O)N(Cc3ccco3)C(C)C(=O)NC(C)(C)C)cc12` (configuration not stated), the EC50 [2] is reported as > 260 µM (inactive).

In the case of `Cc1nn(C)cc1C(=O)NN=C(S)Nc1ccccc1`, the AC50 (Cytochrome P450 2C19) is reported as 22.4 µM (inconclusive), the AC50 (Cytochrome P450 1A2) is reported as 15.8 µM (inconclusive) and the AC50 (Cytochrome P450 2C9) is reported as 39.8 µM (inconclusive).

With `CC(=C\c1ccco1)/C=C1/SC(=S)N(CC(=O)O)C1=O` the EC50 [3] was > 300 µM (not active) and the EC50 [4] was > 300 µM (not active).

With `Cn1cc(-c2nc3cnc(N4CCNCC4)nc3n(-c3ccccc3)c2=O)c2ccccc21` the AC50 (Cytochrome P450 3A4) was 20 µM (inconclusive).
